Data taken from ChEMBL document CHEMBL3576842, “Selenium-containing chrysin and quercetin derivatives: attractive scaffolds for cancer therapy” (J Med Chem, 2015).
Calls of active or inactive are those of the source. The calls are words filed in the database; no cut-off is given here.

Legend:
[1] = system: MCF7; assay: Induction of apoptosis in human MCF7 cells assessed as brightly stained nuclei, chromatin condensation and fragmentation at IC50 after 48 hrs by Hoechst 33258/PI fluorescent staining analysis; assay type: functional, cell-based
[2] = system: MCF7; assay: Decrease in total sulfhydryl gropus in human MCF7 cells at IC50 after 24 hrs by DTNB reduction assay; assay type: functional
[3] = system: MCF7; assay: Cytotoxicity against human MCF7 cells assessed as cell growth inhibition after 72 hrs by MTT assay; assay type: functional, cell-based; conditions: MCF7, 72 h
[4] = system: A-431; assay: Cytotoxicity against human A431 cells assessed as cell growth inhibition after 72 hrs by MTT assay; assay type: functional, cell-based; conditions: A-431, 72 h
[5] = system: A-375; assay: Cytotoxicity against human A375 cells assessed as cell growth inhibition after 72 hrs by MTT assay; assay type: functional, cell-based; conditions: A-375, 72 h
[6] = system: HEK293; assay: Selectivity index, ratio of IC50 for HEK293 cells to IC50 for human A375 cells; assay type: functional
[7] = system: A-431; assay: Resistance factor, ratio of IC50 for cisplatin-resistant human A431 cells to IC50 for human A431 cells; assay type: functional
[8] = system: A-431; assay: Cytotoxicity against cisplatin-resistant human A431 cells assessed as cell growth inhibition after 72 hrs by MTT assay; assay type: functional, cell-based; conditions: A-431, 72 h
[9] = system: HCT-15; assay: Cytotoxicity against human HCT15 cells assessed as cell growth inhibition after 72 hrs by MTT assay; assay type: functional, cell-based; conditions: HCT-15, 72 h
[10] = system: NCI/ADR-RES; assay: Selectivity index, ratio of IC50 for HEK293 cells to IC50 for human MCF7/ADR cells; assay type: functional
[11] = Cytotoxicity against human MCF7/ADR cells assessed as cell growth inhibition after 72 hrs by MTT assay; assay type: functional, cell-based; conditions: NCI/ADR-RES
[12] = system: HEK293; assay: Selectivity index, ratio of IC50 for HEK293 cells to IC50 for human 2008 cells; assay type: functional
[13] = target: T1, Glutathione reductase, mitochondrial (Homo sapiens) (UniProt P00390); assay: Effect on glutathione reductase activity in human MCF7 cells using GSSG as substrate at 1.25 to 20 uM after 24 hrs by spectrophotometric analysis; assay type: cell-based
T1 sequence (whole entry): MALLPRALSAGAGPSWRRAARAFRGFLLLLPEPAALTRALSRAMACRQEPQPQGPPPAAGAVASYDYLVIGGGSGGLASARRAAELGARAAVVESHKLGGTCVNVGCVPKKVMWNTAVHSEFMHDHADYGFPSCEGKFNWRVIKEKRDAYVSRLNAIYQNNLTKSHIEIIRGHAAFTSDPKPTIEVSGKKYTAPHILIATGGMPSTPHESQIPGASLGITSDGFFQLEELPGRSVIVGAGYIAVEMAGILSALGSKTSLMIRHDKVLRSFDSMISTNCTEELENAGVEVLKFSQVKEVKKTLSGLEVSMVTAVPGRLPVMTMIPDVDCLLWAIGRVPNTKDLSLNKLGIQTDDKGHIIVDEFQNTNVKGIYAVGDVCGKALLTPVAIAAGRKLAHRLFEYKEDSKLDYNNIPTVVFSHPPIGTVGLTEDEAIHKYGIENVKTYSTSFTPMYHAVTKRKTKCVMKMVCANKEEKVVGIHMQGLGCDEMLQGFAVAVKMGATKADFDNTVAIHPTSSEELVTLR

[14] = Antioxidant activity assessed as DPPH radical scavenging activity after 1 hr; assay type: physicochemical
[15] = system: HEK293; assay: Cytotoxicity against HEK293 cells assessed as cell growth inhibition after 72 hrs by MTT assay; assay type: cell-based; conditions: Homo sapiens, HEK293, 72 h
[16] = system: MCF7; assay: Decrease in total glutathione level in human MCF7 cells at IC50 after 48 hrs by spectrophotometric analysis; assay type: functional
[17] = target: T2, Thioredoxin reductase (Homo sapiens) (UniProt Q16881+Q9NNW7+Q86VQ6); assay: Increase in thioredoxin reductase activity in HEK293 cells at 0.0625 to 0.625 uM after 24 hrs by DTNB reduction assay; assay type: cell-based; parameters: scale not given: the % may be the effect or the level left
[18] = system: HEK293; assay: Selectivity index, ratio of IC50 for HEK293 cells to IC50 for human HCT15 cells; assay type: functional
[19] = system: MCF7; assay: Induction of apoptosis in human MCF7 cells assessed as caspase-3 activation using DEVD-AFC as substrate at IC50 after 48 hrs by spectrofluorimeter analysis; assay type: functional
[20] = system: MCF7; assay: Anticlonogenic activity against human MCF7 cells assessed as inhibition of clonogenic expansion after 6 hrs; assay type: functional, cell-based
[21] = system: HEK293; assay: Selectivity index, ratio of IC50 for HEK293 cells to IC50 for human BxPC3 cells; assay type: functional
[22] = system: HEK293; assay: Selectivity index, ratio of IC50 for HEK293 cells to IC50 for human MCF7 cells; assay type: functional
[23] = system: C13; assay: Selectivity index, ratio of IC50 for HEK293 cells to IC50 for human C13 cells; assay type: functional
[24] = target: T2, Thioredoxin reductase (Homo sapiens); assay: Inhibition of thioredoxin reductase activity in human MCF7 cells after 24 hrs by DTNB reduction assay; assay type: cell-based
[25] = Antioxidant activity assessed as DPPH radical scavenging activity at 1 mM after 1 hr; assay type: physicochemical; conditions: 1000 µM
[26] = system: MCF7; assay: Induction of apoptosis in human MCF7 cells assessed as decrease in mitochondrial membrane potential at IC50 after 48 hrs by flow cytometry; assay type: functional
[27] = Antioxidant activity assessed as glutathione peroxidase-like activity measured as time required to oxidize dithiothretol by 50% after addition of H2O2 at 3.24 umol; assay type: physicochemical
[28] = Cytotoxicity against human BxPC3 cells assessed as cell growth inhibition after 72 hrs by MTT assay; assay type: functional, cell-based; conditions: BXPC-3, 72 h
[29] = system: MCF7; assay: Drug uptake in human MCF7 cells assessed as intracellular Se accumulation at 12.5 to 25 uM after 12 to 24 hrs by GF-AAS analysis; assay type: ADME, cell-based; conditions: mcf7, 25 µM
[30] = system: NCI/ADR-RES; assay: Resistance factor, ratio of IC50 for human MCF7/ADR cells to IC50 for human MCF7 cells; assay type: functional
[31] = system: HEK293; assay: Selectivity index, ratio of IC50 for HEK293 cells to IC50 for cisplatin-resistant human A431 cells; assay type: functional
[32] = Cytotoxicity against human C13 cells assessed as cell growth inhibition after 72 hrs by MTT assay; assay type: functional, cell-based; conditions: C13, 72 h
[33] = system: 2008; assay: Cytotoxicity against human 2008 cells assessed as cell growth inhibition after 72 hrs by MTT assay; assay type: functional, cell-based; conditions: Homo sapiens, 2008, 72 h
[34] = system: MCF7; assay: Effect on glutathione peroxidase activity in human MCF7 cells using tert-butyl hydroperoxide and GSH as substrate at 1.25 to 20 uM after 24 hrs by spectrophotometric analysis; assay type: cell-based
[35] = system: HEK293; assay: Selectivity index, ratio of IC50 for HEK293 cells to IC50 for human A431 cells; assay type: functional
[36] = system: C13; assay: Resistance factor, ratio of IC50 for cisplatin-resistant human C13 cells to IC50 for human 2008 cells; assay type: functional

SMILES	IC50 [3] [µM]	IC50 [4] [µM]	IC50 [5] [µM]	Ratio IC50 [6]	Ratio IC50 [7]	IC50 [8] [µM]	IC50 [9] [µM]	Ratio IC50 [10]	IC50 [11] [µM]	Ratio IC50 [12]	IC50 [15] [µM]	Ratio IC50 [18]	Ratio IC50 [21]	Ratio IC50 [22]	Ratio IC50 [23]	Activity [25] [%]	IC50 [28] [µM]	Ratio IC50 [30]	Ratio IC50 [31]	IC50 [32] [µM]	other results
COc1cc(O)c2c(=[Se])c(OC)c(-c3ccc(OC)c(OC)c3)oc2c1	3.08	3.11	2.21	5.1	1.2	3.78	2.23	5.1	3.35	5.1	17.3	5.1	5.1	5.1	5.1	90.4	2.42	1.1	5.1	2.29	Activity [1]: Active; inhibition (INH) [2]: 60%; Activity [13]: inactive; IC50 [14]: 74 µM; inhibition [16]: Active; Activity [17]: 35%; fold change (FC) [19]: 4; inhibition [20]: Active; inhibition [24]: Active; fold change (FC) [26]: 4; Time [27]: 4.34 min; Drug uptake [29]: Active; IC50 [33]: 2.09 µM; Activity [34]: inactive; Ratio IC50 [35]: 5.1
COc1cc(O)c2c(=S)c(OC)c(-c3ccc(OC)c(OC)c3)oc2c1	–	–	–	–	–	–	–	–	–	–	–	–	–	–	–	18.3	–	–	–	–	–
O=c1cc(-c2ccccc2)oc2cc(O)cc(O)c12 [CHRYSIN]	50.3	29.4	33.2	1.9	2	60.1	54.4	1.9	51	1.9	77.5	1.9	1.9	1.9	1.9	–	54.3	1	1.9	49.7	Ratio IC50 [36]: 1.7; IC50 [33]: 28.6 µM; Ratio IC50 [35]: 1.9
O=c1c(O)c(-c2ccc(O)c(O)c2)oc2cc(O)cc(O)c12 [QUERCETIN]	20.9	23	25.1	2.5	1.5	34.4	16.4	2.5	22.2	2.5	54.6	2.5	2.5	2.5	2.5	95.6	24.1	1.1	2.5	37.6	Ratio IC50 [36]: 1.8; IC50 [14]: 28 µM; IC50 [33]: 21.2 µM; Ratio IC50 [35]: 2.5
